Patent US20170362283A1, “NISIN-BASED COMPOUNDS AND USE THEREOF IN THE TREATMENT OF BACTERIAL INFECTIONS” (UNIVERSITEIT UTRECHT HOLDING B.V., priority 2015, published 2017)
Where two headings read alike, the source gives them in different places.

What was measured:
[1] = system: E. faecium E980; test: BioScreen growth assay for E. faecium E980; assay type: cell-based; conditions: 5 μM
Description: (§1) A BioScreen C instrument (Oy Growth Curves AB, Helsinki, Finland) was used to monitor effects of the compounds (6), (10), and (12) and the effect of compound (24) with R1-group (e), or Comparative compound B (nisin) on E. faecium growth (each compound administered at a fixed concentration 5 μM). E. faecium strains were inoculated at an initial OD660 of 0.05 into 300 μl TSB containing 1% DMSO and 1% glucose or into the same medium containing the antibiotic compounds at a final concentration of 5 μM. […]
(§2) The E. faecium strains used in these experiments are E. faecium E745 (vancomycin-ampicillin resistant hospital outbreak strain), E. faecium E980 (vancomycin-ampicillin susceptible human commensal isolate), E. Faecium E1133 (vancomycin-ampicillin resistant hospital outbreak strain), and E. faecium E1162 (vancomycin-susceptible ampicillin-resistant clinical isolate). The BioScreen growth assays for each strain was determined for the compounds (6), (10), (12) and also for compound (24) with R1-group (e) as well as nisin (Comparative compound B) and compared to non-treated strains, the results being shown in the Tables 9 to 12 below.

[2] = system: E. faecium E1162; test: BioScreen growth assay for E. faecium E1162; assay type: cell-based; conditions: 5 μM
Description: as §1, §2

[3] = system: E. faecium E1133; test: BioScreen growth assay for E. faecium E1133; assay type: cell-based; conditions: 5 μM
Description: as §1, §2

[4] = system: thirty VRE strains
[5] = system: E. faecium E745; test: BioScreen growth assay for E. faecium E745; assay type: cell-based; conditions: 5 μM
Description: as §1, §2

[6] = Lipid II-binding in model membranes (carboxyfluorescein efflux from LUVs); assay type: biochemical; conditions: concentration of 5 nM; CF-loaded DOPC LUVs with 0.2% lipid II
Description: Large unilamellar vesicles (LUVs), composed of 1,2-dioleoyl-sn-glycero-3-phosphocholine (DOPC) spiked with 0.2% lipid II, were loaded with carboxyfluorescein (CF). The CF efflux was monitored by measuring the increase in fluorescence intensity at 515 nm, with excitation at 492 nm. In a cuvette, a solution (1 mL) of CF-loaded vesicles (20 μM final concentration) in buffer (Tris.HCl, pH 7.0 containing 100 mM NaCl) was prepared and the relevant final concentration of compounds (6), (10), and (12), and also compound (24) with R1-group (e), were added and the mixture was stirred for 1 min and the fluorescence was recorded (A0). After ca. 10 seconds, nisin (comparative compound B) was added (5 nM final concentration) and the fluorescence was followed until it stabilized, then recorded (Astable). Total membrane leakage was induced by the addition of Triton-X100 (final concentration 0.1%) and the fluorescence was recorded (Atotal). The percentile values were calculated by: […]

[7] = system: M. luteus; assay type: cell-based; conditions: duplicate experiments
Summary of the method: (§3)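 Broth dilution MIC following CLSI M07-A9; overnight TSB cultures diluted to 0.5×10^6 CFU in TSB and incubated with compound at 37° C for 16 hours. MIC read by visual inspection of growth.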

[8] = system: VRE 155; assay type: cell-based; conditions: duplicate experiments
Summary of the method: as §3

[9] = system: MRSA WKZ2; assay type: cell-based, Staphylococcus aureus; conditions: duplicate experiments
Summary of the method: as §3

[10] = system: MRSA USA300; assay type: cell-based, Staphylococcus aureus; conditions: duplicate experiments
Summary of the method: as §3

Substance: nisin [Compound B]
- OD600 ([1]; time 0 h): 0.016
- OD600 ([1]; time 4 h): 0.01167
- OD600 ([1]; time 8 h): 0.011
- OD600 ([1]; time 12 h): 0.011
- OD600 ([1]; time 16 h): 0.01067
- OD600 ([2]; time 0 h): 0.024
- OD600 ([2]; time 4 h): 0.01533
- OD600 ([2]; time 8 h): 0.01133
- OD600 ([2]; time 12 h): 0.012
- OD600 ([2]; time 16 h): 0.01033
- OD600 ([3]; time 0 h): 0.016
- OD600 ([3]; time 4 h): 0.009667
- OD600 ([3]; time 8 h): 0.009333
- OD600 ([3]; time 12 h): 0.009333
- OD600 ([3]; time 16 h): 0.008667
- MIC ([4]; VRE strain E0013, GBR, vanA): 8 µg/mL
- MIC ([4]; VRE strain E0072, NLD, vanA): 2 µg/mL
- MIC ([4]; VRE strain E0300, USA, vanA): 8 µg/mL
- MIC ([4]; VRE strain E0321, FRA, vanA): 2 µg/mL
- MIC ([4]; VRE strain E0333, ISR, vanA): 4 to 8 µg/mL
- MIC ([4]; VRE strain E0338, ITA, vanA): 8 µg/mL
- MIC ([4]; VRE strain E0341, GBR, vanA): 4 µg/mL
- MIC ([4]; VRE strain E0506, AUS, vanA): 4 to 8 µg/mL
- MIC ([4]; VRE strain E0745, NLD, vanA): 4 µg/mL
- MIC ([4]; VRE strain E1130, USA, vanA): 4 to 8 µg/mL
- MIC ([4]; VRE strain E1441, GRC, vanA): 4 µg/mL
- MIC ([4]; VRE strain E1679, BRA, vanA): 4 µg/mL
- MIC ([4]; VRE strain E1763, BEL, vanA): 8 µg/mL
- MIC ([4]; VRE strain E2297, USA, vanA): 4 µg/mL
- MIC ([4]; VRE strain E2359, SGP, vanB): 8 µg/mL
- MIC ([4]; VRE strain E2365, HUN, vanB): 2 to 4 µg/mL
- MIC ([4]; VRE strain E2373, SRB, vanA): 4 µg/mL
- MIC ([4]; VRE strain E6016, LVA, vanA): 4 µg/mL
- MIC ([4]; VRE strain E7312, NLD, vanA): 4 µg/mL
- MIC ([4]; VRE strain E7314, NLD, vanB): 4 to 8 µg/mL
- MIC ([4]; VRE strain E7319, NLD, vanA): 4 µg/mL
- MIC ([4]; VRE strain E7329, NLD, vanA): 4 µg/mL
- MIC ([4]; VRE strain E7401, NLD, vanB): 8 µg/mL
- MIC ([4]; VRE strain E7403, NLD, vanB): 4 µg/mL
- MIC ([4]; VRE strain E7413, NLD, vanA): 4 µg/mL
- MIC ([4]; VRE strain E7424, NLD, vanB): 4 µg/mL
- MIC ([4]; VRE strain E7464, NLD, vanB): 4 µg/mL
- MIC ([4]; VRE strain E8218, NLD, vanB): 4 µg/mL
- MIC ([4]; VRE strain E8235, NLD, vanB): 4 µg/mL
- MIC ([4]; VRE strain E8237, NLD, vanA): 8 µg/mL
- OD600 ([5]; time 0 h): 0.01733
- OD600 ([5]; time 4 h): 0.01033
- OD600 ([5]; time 8 h): 0.01033
- OD600 ([5]; time 12 h): 0.01067
- OD600 ([5]; time 16 h): 0.008667
- leakage of the CF dye [6]: about 50%
- MIC values M. luteus [7]: 0.02 to 0.03 µg/mL
- MIC values VRE 155 [8]: 5 µg/mL
- MIC values MRSA WKZ2 [9]: 10 µg/mL
- MIC values MRSA USA300 [10]: 10 µg/mL
